“Also recorded” adds a separate entry of the source. *1 amine or outer side, *2 acyl side, *3 side chain or, on linkers, in order; H or OH if unused. Where a SMILES comes first, the peptide text is derived from it. Bridges are numbered along the chain shown (N, C = ends). Roman numbers before positions name the chains, in order. [ ]: non-standard residue; d: D form. Actinocin(9to1) = Cc1c2oc3c(C)ccc(C(=O)[*:1])c3nc-2c(C(=O)[*:2])c(N)c1=O; NMeV = CN[C@H](C(=O)O)C(C)C; Sar = CNCC(=O)O
What was measured:
Assay type in all cases: cell-based, mouse
DRG explants = experiment: pan-JNK inhibitors in NGF withdrawal assay on DRG explants; settings: for concentration at which most protective: DRG explants, NGF withdrawal; for protection of DRG explants from NGF-dependent degeneration: treated with anti-NGF and inhibitor
Procedure: If DLK inhibition protects neurons from degeneration through limiting the phosphorylation of JNK2 and JNK3, then inhibitors of JNK2 or JNK3 should also protect neurons from cell death and axon degeneration. The ability of direct JNK inhibition to protect neurons against NGF withdrawal-dependent degeneration was also assessed. DRG explants were treated with anti-NGF and either pan-JNK inhibitor JNKV or JNKVIII, prior to assessment in the NGF withdrawal assay described above.

[1] = system: DRG neurons (axon vs. cell body compartment); experiment: Campenot chamber local axon degeneration (anti-NGF in axon compartment)
Procedure: Teflon dividers (Tyler Research) were cleaned by washing in water and wiping them clean of any residual grease. Dividers were then soaked in Nochromix (Godax Laboratories)/sulfuric acid overnight, rinsed five times in distilled and autoclaved water (SQ water), boiled for 30 minutes, and then air-dried before use
Mouse laminin (5 μg/ml in sterile filtered water; Invitrogen) was added to PDL coated 35 mm dishes (BD Biosciences) and they were incubated for 1 hour at 37° C., followed by two rinses in SQ water. The dishes were vacuum-dried and then air-dried in a laminar flow hood for 15 minutes. Prepared dishes were then scored with a pin rake (Tyler Research). […] High vacuum grease (VWR) was added to each Teflon divider under a dissection scope. The laminin coated PDL dishes were inverted and dropped onto the Teflon divider, with additional pressure added by use of a toothpick in the non-track-containing regions. Dishes were incubated for 1 hour at 37° C. Five hundred microliters of NBM+MC (50 ng/ml NGF) solution was added to each of the side compartments, and a grease barrier was added in front of the center cell slot.
Free E13.5 spinal cords were dissected from mouse embryos and placed into NBM+MC (25 ng/ml NGF) solution. DRGs were detached from the spinal cord with a tungsten needle. An NBM+MC-lubricated P200 pipette was used to move DRGs into a 1.5 ml tube. DRGs were pelleted with a tabletop centrifuge for 30 seconds. The supernate was discarded and 0.05% Trypsin/EDTA (cold) was added. The pellet was resolubilized with a pipette and incubated at 37° C. for 15 minutes with constant agitation (650 RPM). The sample was again centrifuged and the supernate discarded. The pellet was resuspended in warm NBM+MC (50 ng/ml NGF) solution and triturated with a flamed glass pipette 20 times, followed by trituration with a fire-bored glass pipette another 20 times. The samples were again centrifuged and the resulting pellets were resuspended in 0.5 ml NBM+MC (50 ng/ml NGF) solution. The cells were diluted to a final concentration of 2.5×10^6 cells/ml. The cell suspensions were loaded into a 1 ml syringe with a 22 gauge needle. The center slot of the Campenot divider was filled using the syringe (to a volume of at least 50 μl). The Campenot chamber was incubated overnight at 37° C. 2.5 ml NGF+MC (50 ng/ml NGF) solution was added to the center compartment and the grease gate was removed. The outer medium (cell body compartment) was replaced after three days with 2.5 ml NBM+MC medium (with 25 ng/ml NGF). After five days in culture, one distal compartment was washed three times with warmed NBM+MC (no NGF) solution. After the third wash, 500 μl NBM+MC (no NGF) solution was added to the axon compartment in combination with either 0.5% DMSO or an inhibitor. The cell body compartment was replaced with 2.5 ml NBM+MC medium (with 25 ng/ml NGF) containing either 0.5% DMSO or inhibitor.
After 28 hours of anti-NGF antibody treatment, 8% PFA/30% sucrose solution (see above) was added directly to the culture medium at a 1:1 dilution and incubated for 30 minutes. The Teflon divider was removed after the first 15 minutes of addition. The system was washed once with 2.5 ml PBS prior to immunostaining. Neurons were blocked in 5% BSA/0.2% triton in PBS for 30 minutes. The primary antibody Tuj1 (Covance) was added to a final dilution of 1:1000 in PBS containing 2% BSA and incubated overnight at 4° C. The dish was washed once with PBS. […] The dish was washed twice with PBS, and a 22×22 mm coverslip (VWR) was added with 350 μl of fluoromount G (Electron Microscopy Sciences). The neurons were visualized by use of a fluorescence microscope.
As described above, E13.5 DRGs were isolated and grown for 5 days in a Campenot chamber.

DRGs [2] = experiment: anti-NGF antibody (NGF withdrawal) screen for inhibitors of axon degeneration in DRG explants; settings: inhibitor 100 μM or 10 μM added 1 hour before 25 μg/ml anti-NGF; 20 hours; actin stain
Procedure: The anti-NGF antibody model described above in Example 1 was used in a screen for inhibitors of neuron or axon degeneration. A library of more than 400 small molecules (Tocris Bioscience) was tested to see which, if any, modulate degeneration observed in the presence of anti-NGF antibodies.
Mouse E13.5 embryos were dissected and placed into L15 medium (Invitrogen). The spinal cord was dissected out from the embryos with DRGs attached. The spinal cords with DRGs attached were placed into L15 medium+5% goat serum (Gibco) on ice. The DRGs were removed using a tungsten needle and the remaining spinal cord was disposed of. Eight well slides were filled with N3-F12 solution (23 ml Ham's F12, 1 ml N3 supplement, and 1 ml 1 M glucose) to which was added 25 ng/ml NGF (Roche). (N3 supplement was made by dilution of N3 100× concentrate, which was made by mixing the following ingredients, in the following order: 5.0 ml Hank's buffered saline solution (HBSS; Ca, Mg free; Invitrogen), 1.0 ml bovine serum albumin (10 mg/ml in HBSS=150 μm), 2.0 ml Transferrin (T1147-1G, human, 100 mg/ml in HBSS=1.1 mM), 1.0 ml sodium selenite (S9133-1MG, 0.01 mg/ml in HBSS 58 μM), 0.4 ml putrescine dihydrochloride (P5780-5G, 80 mg/ml in HBSS=500 mM), 0.2 ml progesterone (P8783-5G, 0.125 mg/ml in absolute ethanol=400 μM), 0.02 ml corticosterone (C2505-500MG, 2 mg/ml in absolute ethanol=5.8 mM), 0.1 ml triiodothyonine, sodium salt (T6397-100MG, 0.2 mg/ml in 0.01 N NaOH=300 μM), 0.4 ml insulin (16634-250MG, bovine pancreas, 241 U/mg, 25 mg/ml in 20 mM HCl=4.4 mM), for a total volume of 10.02 ml (can be stored at −20° C.). An N3 supplement stock was made by combining the following: 10 ml Pen/Strep (100×, Gibco), 10 ml glutamine (200 mM, Gibco), 10 ml MEM vitamins (100×, Gibco), 10 ml N3 concentrate (100×, see above), for a total volume of 40 ml. The mixture was filter sterilized using a 0.22 μm filter, and 1-2 ml aliquots were stored at −20° C.).
The DRGs were sectioned into halves and placed in the center of each well of an 8-chamber slide (BD Biocoat PDL/Laminin coated glass, Becton Dickinson). The DRGs were permitted to attach to the slide at room temperature for 5-10 minutes, followed by an overnight incubation at 37° C. Inhibitors of choice were added at a concentration of 100 μM (top row) or 10 μM (bottom row) 1 hour before adding anti NGF antibodies. The anti-NGF antibodies were added to the right half of the slide (4 wells) at a concentration of 25 μg/ml. After incubation for 20 hours at 37° C., the slides were fixed with 30% sucrose/8% paraformaldehyde (PFA) by adding 250 μl of the fix solution directly to the 250 μl of culture medium. (To make the 30% sucrose/8% PFA solution, the following ingredients were added to a 600 ml beaker including a stir bar: 250 ml 16% PFA (cat#15710-S, Electron Microscopy Sciences), 50 ml 10×PBS pH 7.4, and 150 g sucrose. The solution was mixed under low heat until dissolved, and then 6-8 drops of 1 M NaOH were added to bring the pH to 7.4. The volume was then brought to 500 ml with water in a graduated cylinder. The solution was mixed well, placed in aliquots, and frozen.) The s ides were fixed for 30 minutes, followed by washing once with PBS. All cells were labeled with an actin stain (Alexa-568 conjugated phalloidin; 1:40; Invitrogen), a membrane dye (DiO; 1:200; Invitrogen), and a DNA stain (Hoechst 33258; 1:10,000; Invitrogen) in 0.1% Triton and 1% goat serum for 2 hours at room temperature. […]

DRGs [3] = experiment: G-protein/GPCR inhibitors in NGF withdrawal-induced degeneration in DRGs; settings: 0.01 μg/mL, 0.1 μg/mL, or 1 μg/mL (FIG. 51)
Procedure: The assays described herein identified several inhibitors of G-proteins and G-protein coupled receptors (GPCRs) that decrease degeneration in neurons. Experiments were performed in DRGs to verify the role of G-proteins and GPCRs in degeneration pathways. The experimental protocols used in these experiments are the same as those described in Example 14. Pertussis toxin and SCH 202676 were purchased from Tocris Bioscience.

[4] = system: cerebellar granule neurons (CGNs); experiment: serum deprivation/KCl reduction degeneration of cerebellar granule neurons; settings: 5 μM; 5 mM KCl, 24 hours
[5] = inhibitor 5 μM in axon compartment
[6] = inhibitor 5 μM in cell body compartment

N#C/C(=C1/Nc2ccccc2S1)c1ccnc(NCCc2cccnc2)n1 [JNKV]
concentration at which most protective (DRG explants): 5 µM
protection of DRG explants from NGF-dependent degeneration (DRG explants): able to protect

COc1ccc(CNC(=O)Nc2ncc([N+](=O)[O-])s2)cc1 [AR-A014418]
Axon Compartment (protection of NGF-deprived axons) ([1]; inhibitor 20 μM in axon compartment): No (1)
Cell Body Compartment (protection of NGF-deprived axons) ([1]; inhibitor 20 μM in cell body compartment): Yes (1)

O=C1NC(=O)C(c2cn(CCCO)c3ncccc23)=C1c1cnccn1 [GSK3 inhibitor XI]
Axon Compartment (protection of NGF-deprived axons) ([1]; inhibitor 30 μM in axon compartment, anti-NGF on axons 28 hours, number in parentheses not explained): No (2)
Cell Body Compartment (protection of NGF-deprived axons) ([1]; inhibitor 30 μM in cell body compartment, anti-NGF on axons 28 hours, number in parentheses not explained): Yes (2)

C[S+]([O-])c1ccc(-c2nc(-c3ccc(F)cc3)c(-c3ccncc3)[nH]2)cc1.Cl (centres unmarked) [SB 203580 HCl]
Comments (observations on compounds found to protect against neurodegeneration) (DRGs [2]): Partial

OC(CN1CCNCC1)Cn1c2ccc(Br)cc2c2cc(Br)ccc21 (centres unmarked) [Bax Channel Blocker]
Comments (observations on compounds found to protect against neurodegeneration) (DRGs [2]): Cell bodies detach

C[C@@H]1C[C@@H]([C@H](O)CC2CC(=O)NC(=O)C2)C(=O)[C@@H](C)C1 [Cycloheximide]
Axon Compartment (protection of NGF-deprived axons) [1, 5]: No (2)
Cell Body Compartment (protection of NGF-deprived axons) [1, 6]: Yes (2)

CCOc1nc(NC(=O)Cc2cc(OC)ccc2OC)cc(N)c1C#N [JNKVIII]
concentration at which most protective (DRG explants): 4 µM
protection of DRG explants from NGF-dependent degeneration (DRG explants): able to protect

CCN(c1ccccc1)c1cc(NC)[n+](C)c(C)n1 [ZD7288]
Axon Compartment (protection of NGF-deprived axons) [1, 5]: No (3)
Cell Body Compartment (protection of NGF-deprived axons) [1, 6]: Yes (3)

Pertussis toxin
degeneration in neurons following NGF withdrawal (DRGs [3]): decreases

C[C@@H](NC(=O)/C(C#N)=C/c1ccc(O)c(O)c1)c1ccccc1 [Tyrphostin B44]
Comments (observations on compounds found to protect against neurodegeneration) (DRGs [2]): Partial

Cc1c2oc3c(C)ccc(C(=O)N[C@@H]4C(=O)N[C@H](C(C)C)C(=O)N5CCC[C@H]5C(=O)N(C)CC(=O)N(C)[C@@H](C(C)C)C(=O)O[C@@H]4C)c3nc-2c(C(=O)N[C@@H]2C(=O)N[C@H](C(C)C)C(=O)N3CCC[C@H]3C(=O)N(C)CC(=O)N(C)[C@@H](C(C)C)C(=O)O[C@@H]2C)c(N)c1=O [Actinomycin D] (I: T[dV]P[Sar][NMeV] / II: T[dV]P[Sar][NMeV]; ester I:1-I:C, II:1-II:C; linker I:N-II:N via Actinocin(9to1))
formation of varicosities in locally NGF-deprived axons [1]: large number of axons with varicosities, as well as fragmented axons
Axon Compartment (protection of NGF-deprived axons) ([1]; inhibitor 15 μM in axon compartment): No (4)
Axon Compartment (protection of NGF-deprived axons) ([1]; inhibitor 15 μM in axon compartment, listed as Act D): failed to prevent degeneration
Cell Body Compartment (protection of NGF-deprived axons) ([1]; inhibitor 15 μM in cell body compartment): Yes (4)
Cell Body Compartment (protection of NGF-deprived axons) ([1]; inhibitor 15 μM in cell body compartment, listed as Act D): did not degenerate; also recorded: protected from local degeneration

C=C[C@@]1(C)CC(=O)[C@]2(O)[C@@]3(C)[C@@H](O)CCC(C)(C)[C@@H]3[C@H](O)[C@H](OC(C)=O)[C@@]2(C)O1 [Forskolin]
Axon Compartment (protection of NGF-deprived axons) ([1]; inhibitor 3 μM in axon compartment): Yes (2)
Cell Body Compartment (protection of NGF-deprived axons) ([1]; inhibitor 3 μM in cell body compartment): Yes (2)

C=C[C@@]1(C)CC(=O)[C@]2(O)[C@@]3(C)[C@@H](O)CCC(C)(C)[C@@H]3[C@H](OC(=O)CCN(C)C)[C@H](OC(C)=O)[C@@]2(C)O1 [NKH 477]
Comments (observations on compounds found to protect against neurodegeneration) (DRGs [2]): Partial

O=C1c2ccccc2-c2n[nH]c3cccc1c23 [SP600125]
Axon Compartment (protection of NGF-deprived axons) [1, 5]: Yes (1)
Cell Body Compartment (protection of NGF-deprived axons) [1, 6]: Yes (1)
Axon Compartment (protection of NGF-deprived axons) ([1]; inhibitor 10 μM in axon compartment): Yes (1)
Cell Body Compartment (protection of NGF-deprived axons) ([1]; inhibitor 10 μM in cell body compartment): Yes (1)
protection of cerebellar granule neurons from serum deprivation/KCl reduction [4]: protect
